Source: ChEMBL document CHEMBL1221326, “Synthesis, biological evaluation, and docking studies of novel heterocyclic diaryl compounds as selective COX-2 inhibitors” (Bioorg Med Chem, 2010)

Columns and labels:
[1] = biological target: T1, Prostaglandin G/H synthase 1 (Ovis aries) (UniProt P05979); test: Inhibition of sheep COX1 at 10 uM by enzyme immunoassay
T1 sequence (whole entry): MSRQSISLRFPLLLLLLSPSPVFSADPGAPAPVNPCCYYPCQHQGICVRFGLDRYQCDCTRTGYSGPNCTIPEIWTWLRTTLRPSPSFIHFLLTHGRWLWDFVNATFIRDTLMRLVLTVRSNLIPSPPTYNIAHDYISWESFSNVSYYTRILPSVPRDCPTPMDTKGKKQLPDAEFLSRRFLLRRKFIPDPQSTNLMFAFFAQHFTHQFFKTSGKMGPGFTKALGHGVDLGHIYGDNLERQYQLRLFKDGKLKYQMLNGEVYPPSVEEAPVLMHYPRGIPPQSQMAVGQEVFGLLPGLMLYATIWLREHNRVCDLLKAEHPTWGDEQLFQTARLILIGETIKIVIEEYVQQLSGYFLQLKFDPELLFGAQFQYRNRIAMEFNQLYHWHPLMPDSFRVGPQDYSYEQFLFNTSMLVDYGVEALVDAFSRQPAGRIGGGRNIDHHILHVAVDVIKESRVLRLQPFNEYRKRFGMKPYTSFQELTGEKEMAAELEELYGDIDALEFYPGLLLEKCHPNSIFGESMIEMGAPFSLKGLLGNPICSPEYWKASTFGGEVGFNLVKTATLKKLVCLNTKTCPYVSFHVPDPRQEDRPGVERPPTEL

[2] = biological target: T2, Prostaglandin G/H synthase 1 (Ovis aries, UniProt P05979); test: Inhibition of sheep COX1 by enzyme immunoassay
T2 sequence (P05979 whole entry): T1 sequence (whole entry)

Ovis aries = species on record: Ovis aries; test: Selectivity index, ratio of IC50 for sheep COX1 to IC50 for sheep COX2

inhibition [1] [%] | IC50 [2] [nM] | Ratio IC50 (Ovis aries) | SMILES
95.6 | 4 |  | COc1ccc(-n2nc(C(F)(F)F)cc2-c2ccc3c(c2)oc(=O)n3C)cc1
59.8 | 61 |  | COc1ccc(C2=C(c3ccc4c(c3)oc(=O)n4C)COC2=O)cc1
55.5 | 6000 | 6 | Cn1c(=O)oc2cc(-c3cc(C(F)(F)F)nn3-c3ccc(F)cc3)ccc21
91.2 | 1000 |  | Cn1c(=O)oc2cc(-c3cc(C(F)(F)F)nn3-c3ccc(Cl)cc3)ccc21
